Assay results as given in the NIST ThermoML archive (doi:10.1016/j.jct.2008.02.005).

Test: xn = mol fraction of the nth substance listed
Settings: 101 kPa, Liquid; for viscosity: Capillary tube (Ostwald / Ubbelohde) method; for speed of sound: Sing-around technique in a fixed-path interferometer

CCCCCCCCO [octan-1-ol] + CCCCCCCCCC
Settings | mass density, 298.15 K [kg/m3] | mass density, 303.15 K [kg/m3] | mass density, 308.15 K [kg/m3] | speed of sound, 298.15 K [m/s] | speed of sound, 303.15 K [m/s] | speed of sound, 308.15 K [m/s] | viscosity, 298.15 K [mPa·s]
x1 = 0.0507 | 730.551 | 726.796 | 722.969 | 1236.4 | 1216.3 | 1196.8 | 0.896
x1 = 0.1199 | 735.871 | 732.137 | 728.314 | 1240.1 | 1220.5 | 1201.1 | 0.978
x1 = 0.1532 | 738.514 | 734.755 | 730.923 | 1242.2 | 1222.7 | 1203.4 | 1.026
x1 = 0.2085 | 742.997 | 739.255 | 735.427 | 1246.3 | 1226.8 | 1207.5 | 1.121
x1 = 0.2654 | 747.773 | 744.007 | 740.195 | 1250.8 | 1231.7 | 1212.6 | 1.233
x1 = 0.3097 | 751.578 | 747.791 | 743.987 | 1254.8 | 1235.6 | 1216.6 | 1.33
x1 = 0.4009 | 759.689 | 755.863 | 752.086 | 1263.5 | 1244.6 | 1225.9 | 1.579
x1 = 0.5041 | 769.261 | 765.532 | 761.703 | 1274.7 | 1256 | 1237.4 | 1.958
x1 = 0.6069 | 779.261 | 775.493 | 771.782 | 1287.2 | 1268.7 | 1250.5 | 2.49
x1 = 0.7244 | 791.228 | 787.587 | 783.929 | 1303.1 | 1285 | 1267.4 | 3.381
x1 = 0.7505 | 793.993 | 790.368 | 786.721 | 1306.9 | 1288.9 | 1271.5 | 3.642
x1 = 0.804 | 799.684 | 796.157 | 792.558 | 1315.2 | 1297.5 | 1279.9 | 4.231
x1 = 0.8958 | 809.826 | 806.478 | 802.907 | 1330.1 | 1312.7 | 1295.6 | 5.521
x1 = 0.9544 | 816.493 | 813.314 | 809.765 | 1339.9 | 1322.9 | 1305.9 | 6.563
x1 = 1 | 821.813 | 818.796 | 815.286 | 1348 | 1330.8 | 1314.1 | 7.508

CCCCCCCCO [octan-1-ol] + CCCCCCCC
Settings | mass density, 298.15 K [kg/m3] | mass density, 303.15 K [kg/m3] | mass density, 308.15 K [kg/m3] | speed of sound, 298.15 K [m/s] | speed of sound, 303.15 K [m/s] | speed of sound, 308.15 K [m/s] | viscosity, 298.15 K [mPa·s]
x1 = 0.0548 | 705.04 | 700.957 | 696.852 | 1177.6 | 1156.9 | 1136.7 | 0.554
x1 = 0.1078 | 711.299 | 707.298 | 703.23 | 1183.3 | 1162.8 | 1142.7 | 0.621
x1 = 0.1526 | 716.736 | 712.733 | 708.68 | 1189.2 | 1168.9 | 1148.9 | 0.679
x1 = 0.2019 | 722.796 | 718.79 | 714.754 | 1196 | 1175.9 | 1156.1 | 0.762
x1 = 0.2516 | 728.888 | 724.91 | 720.901 | 1203.4 | 1183.5 | 1163.6 | 0.839
x1 = 0.3075 | 735.75 | 731.816 | 727.826 | 1212.2 | 1192.3 | 1172.8 | 0.965
x1 = 0.4055 | 747.852 | 743.986 | 740.044 | 1228 | 1208.9 | 1189.7 | 1.222
x1 = 0.5031 | 759.965 | 756.131 | 752.284 | 1245.5 | 1226.6 | 1207.7 | 1.569
x1 = 0.602 | 772.269 | 768.472 | 764.683 | 1263.9 | 1245.2 | 1227 | 2.091
x1 = 0.7158 | 786.456 | 782.773 | 779.057 | 1286.9 | 1268.7 | 1250.9 | 2.991
x1 = 0.803 | 797.369 | 793.787 | 790.122 | 1305.6 | 1287.7 | 1270.1 | 3.986
x1 = 0.8501 | 803.36 | 799.76 | 796.133 | 1315.7 | 1297.9 | 1280.6 | 4.652
x1 = 0.8959 | 808.907 | 805.579 | 801.983 | 1325.7 | 1308.1 | 1290.9 | 5.399
x1 = 0.9509 | 815.733 | 812.572 | 809.022 | 1337.5 | 1320.2 | 1303.2 | 6.441
x1 = 1 | 821.813 | 818.796 | 815.286 | 1348 | 1330.8 | 1314.1 | 7.508

CCCCCCCCO [octan-1-ol] + CCCCCC
Settings | mass density, 298.15 K [kg/m3] | mass density, 303.15 K [kg/m3] | mass density, 308.15 K [kg/m3] | speed of sound, 298.15 K [m/s] | speed of sound, 303.15 K [m/s] | speed of sound, 308.15 K [m/s] | viscosity, 298.15 K [mPa·s]
x1 = 0.0651 | 668.557 | 663.926 | 659.735 | 1090.1 | 1068.1 | 1046.3 | 0.358
x1 = 0.1109 | 677.728 | 673.192 | 668.685 | 1100 | 1078.1 | 1056.6 | 0.409
x1 = 0.1511 | 685.618 | 681.095 | 676.641 | 1109.9 | 1089.3 | 1066.9 | 0.444
x1 = 0.2052 | 695.979 | 691.566 | 687.129 | 1123.8 | 1102.7 | 1081.6 | 0.53
x1 = 0.2699 | 708.106 | 703.843 | 699.426 | 1142.3 | 1121.4 | 1099.9 | 0.654
x1 = 0.3016 | 713.929 | 709.692 | 705.291 | 1150.4 | 1129.8 | 1109.3 | 0.725
x1 = 0.4013 | 731.693 | 727.596 | 723.487 | 1178.7 | 1158.8 | 1138.9 | 1.023
x1 = 0.5059 | 749.508 | 745.544 | 741.544 | 1209.1 | 1189.6 | 1170.3 | 1.477
x1 = 0.6014 | 765.032 | 761.168 | 757.276 | 1237 | 1218.1 | 1199.2 | 2.057
x1 = 0.7083 | 781.504 | 777.748 | 773.973 | 1268.1 | 1249.8 | 1231.4 | 2.954
x1 = 0.7967 | 794.381 | 790.775 | 787.028 | 1293.2 | 1275.3 | 1257.6 | 3.977
x1 = 0.8463 | 801.415 | 797.955 | 794.319 | 1307.2 | 1289.7 | 1272.1 | 4.666
x1 = 0.9154 | 810.757 | 807.483 | 803.632 | 1326.1 | 1308.4 | 1291.3 | 5.802
x1 = 0.9401 | 814.039 | 810.851 | 807.169 | 1332.7 | 1315.5 | 1298.5 | 6.264
x1 = 1 | 821.813 | 818.796 | 815.286 | 1348 | 1330.8 | 1314.1 | 7.508
